{"source": "patent US10039779B2", "about": "“Combination formulation of two antiviral compounds” (priority 2013, dated 2018)", "type_in_all_cases": "physicochemical", "key": {"[1]": {"experiment": "Excipient and organic solvent solubility", "settings": "thermodynamic from solid", "description": "Solubility of ledipasvir amorphous free base and ledipasvir crystalline D-tartrate was measured in a wide range of pharmaceutically acceptable solvents, including cosolvents, surfactants, fatty acids, triglycerides, or blends thereof. Material was weighed into scintillation vials and stirred for up to 48 hours at room temperature. In many cases, solubility was higher than the amount of solid used in the sample, thus many results are reported as ‘greater than’ or ‘greater than or equal to’ if the concentration was not quantitatively determined by HPLC-UV."}, "[2]": {"experiment": "Aqueous solubility with 0.1% w/w surfactants and polymers; dissolution behavior of forms", "settings": "for solubility: thermodynamic from solid", "description": "Excess solid was added to aqueous buffered solutions; samples were withdrawn at predetermined intervals (2, 5, 8, 10, 15, 20, 30, 45, 60 minutes, and 24 hours), filtered through regenerated cellulose filters, and diluted for concentration measurement by the HPLC-UV method."}, "[3]": {"experiment": "pH-solubility profile and solubility in simulated intestinal media", "settings": "for solubility at 48 h: thermodynamic from solid", "description": "Excess solid ledipasvir was added to a range of pH-adjusted aqueous solutions (titrated with HCl or NaOH) and stirred for 48 hours at room temperature. The suspensions were then filtered through regenerated cellulose syringe filters. The pH value of the supernatant was measured, and the supernatant was diluted as appropriate with 50:50 H2O+0.1% TFA:ACN and assayed for ledipasvir content by the HPLC-UV method.\nSolubility of ledipasvir amorphous free base was assessed in three types of simulated intestinal fluids at pH 6.5 or pH 5.0; and simulated intestinal bile salt and lecithin mixture (SIBLM), pH 6.4. Excess solid ledipasvir was added to the respective SIFs and stirred for 48 hours at room temperature. The resulting suspensions were then filtered through regenerated cellulose syringe filters. The supernatant was diluted as appropriate with 50:50 H2O+0.1% TFA:ACN and assayed for ledipasvir content by the HPLC-UV method."}}, "data": [{"smiles": "COC(=O)N[C@H](C(=O)N1CC2(CC2)C[C@H]1c1ncc(-c2ccc3c(c2)C(F)(F)c2cc(-c4ccc5nc([C@@H]6[C@H]7CC[C@H](C7)N6C(=O)[C@@H](NC(=O)OC)C(C)C)[nH]c5c4)ccc2-3)[nH]1)C(C)C", "note": "[Ledipasvir amorphous free base]", "values": [{"measurement": "solubility", "setting": "[1]; oil or lipid", "value": "> 500000", "unit": "µg/mL"}, {"measurement": "solubility", "setting": "[1]; pH 2.5, aqueous with cosolvent or surfactant or cyclodextrin", "value": 25000, "unit": "µg/mL"}, {"measurement": "dissolution behavior relative to other ledipasvir forms", "setting": "[2]; aqueous buffered solutions", "value": "faster than that of the crystalline free base and acetone solvate forms"}, {"measurement": "solubility", "setting": "[2]; aqueous citrate buffer with excipient, pH 2, aqueous with cosolvent or surfactant or cyclodextrin, 0.1% w/w PVP (povidone), pH 2", "value": 5470, "unit": "µg/mL"}, {"measurement": "solubility", "setting": "[2]; aqueous citrate buffer with excipient, pH 2, aqueous with cosolvent or surfactant or cyclodextrin, 0.1% w/w PVP/VA (copovidone), pH 2", "value": 6730, "unit": "µg/mL"}, {"measurement": "solubility", "setting": "[2]; aqueous citrate buffer with excipient, pH 2, aqueous with cosolvent or surfactant or cyclodextrin, 0.1% w/w Sodium lauryl sulfate, pH 2", "value": 50, "unit": "µg/mL"}, {"measurement": "solubility", "setting": "[2]; aqueous citrate buffer with excipient, pH 5, aqueous with cosolvent or surfactant or cyclodextrin, 0.1% w/w PVP (povidone), pH 5", "value": 0.4, "unit": "µg/mL"}, {"measurement": "solubility", "setting": "[2]; aqueous citrate buffer with excipient, pH 5, aqueous with cosolvent or surfactant or cyclodextrin, 0.1% w/w PVP/VA (copovidone), pH 5", "value": 1, "unit": "µg/mL"}, {"measurement": "solubility", "setting": "[2]; aqueous citrate buffer with excipient, pH 5, aqueous with cosolvent or surfactant or cyclodextrin, 0.1% w/w Sodium lauryl sulfate, pH 5", "value": 243, "unit": "µg/mL"}, {"measurement": "solubility", "setting": "[2]; aqueous citrate buffer, no excipient, pH 2, aqueous buffer, pH 2, room temperature", "value": 4940, "unit": "µg/mL"}, {"measurement": "solubility", "setting": "[2]; aqueous citrate buffer, no excipient, pH 5, aqueous buffer, pH 5, room temperature", "value": 0.1, "unit": "µg/mL"}, {"measurement": "solubility", "setting": "[2]; pH 2, aqueous with cosolvent or surfactant or cyclodextrin, 0.1% w/w Cremaphor EL, pH 2", "value": 9110, "unit": "µg/mL"}, {"measurement": "solubility", "setting": "[2]; pH 2, aqueous with cosolvent or surfactant or cyclodextrin, 0.1% w/w HPC (hydroxypropylcellulose), pH 2", "value": 4670, "unit": "µg/mL"}, {"measurement": "solubility", "setting": "[2]; pH 2, aqueous with cosolvent or surfactant or cyclodextrin, 0.1% w/w HPMC (hydroxymethylcellulose), pH 2", "value": 5270, "unit": "µg/mL"}, {"measurement": "solubility", "setting": "[2]; pH 2, aqueous with cosolvent or surfactant or cyclodextrin, 0.1% w/w Labrasol, pH 2", "value": 7440, "unit": "µg/mL"}, {"measurement": "solubility", "setting": "[2]; pH 2, aqueous with cosolvent or surfactant or cyclodextrin, 0.1% w/w Poloxamer 188, pH 2", "value": 7190, "unit": "µg/mL"}, {"measurement": "solubility", "setting": "[2]; pH 2, aqueous with cosolvent or surfactant or cyclodextrin, 0.1% w/w Polysorbate 80, pH 2", "value": 9270, "unit": "µg/mL"}, {"measurement": "solubility", "setting": "[2]; pH 5, aqueous with cosolvent or surfactant or cyclodextrin, 0.1% w/w Cremaphor EL, pH 5", "value": 69.9, "unit": "µg/mL"}, {"measurement": "solubility", "setting": "[2]; pH 5, aqueous with cosolvent or surfactant or cyclodextrin, 0.1% w/w HPC (hydroxypropylcellulose), pH 5", "value": 0.1, "unit": "µg/mL"}, {"measurement": "solubility", "setting": "[2]; pH 5, aqueous with cosolvent or surfactant or cyclodextrin, 0.1% w/w HPMC (hydroxymethylcellulose), pH 5", "value": 0.3, "unit": "µg/mL"}, {"measurement": "solubility", "setting": "[2]; pH 5, aqueous with cosolvent or surfactant or cyclodextrin, 0.1% w/w Poloxamer 188, pH 5", "value": 0.5, "unit": "µg/mL"}, {"measurement": "solubility", "setting": "[2]; pH 5, aqueous with cosolvent or surfactant or cyclodextrin, 0.1% w/w Polysorbate 80, pH 5", "value": 62.4, "unit": "µg/mL"}, {"measurement": "solubility", "setting": "[3]; Aqueous, pH 1.6 (HCl), room temperature", "value": 6855, "unit": "µg/mL"}, {"measurement": "solubility", "setting": "[3]; Aqueous, pH 2.3 (HCl), room temperature", "value": 1096, "unit": "µg/mL"}, {"measurement": "solubility at 48 h", "setting": "[3]; FaSSIF, pH 6.5, fassif, FaSSIF pH = 6.5, room temperature", "value": 25, "unit": "µg/mL"}, {"measurement": "solubility at 48 h", "setting": "[3]; FeSSIF, pH 5, fessif, FeSSIF pH = 5.0, room temperature", "value": 230, "unit": "µg/mL"}, {"measurement": "solubility at 48 h", "setting": "[3]; SIBLM (simulated intestinal bile salt and lecithin mixture), pH 6.4, fassgf or other biorelevant, SIBLM pH = 6.4, room temperature", "value": 232, "unit": "µg/mL"}, {"measurement": "intrinsic solubility (S0)", "setting": "[3]; aqueous, neutral form (pH>5), room temperature", "value": "approximately 0.04 μg/mL"}, {"measurement": "solubility at 48 h", "setting": "[3]; pH-adjusted aqueous solution (HCl), pH 1.6, aqueous buffer, Aqueous, pH 1.6 (HCl), room temperature", "value": "~7000", "unit": "µg/mL"}, {"measurement": "solubility at 48 h", "setting": "[3]; pH-adjusted aqueous solution (HCl), pH 2.3, aqueous buffer, Aqueous, pH 2.3 (HCl), room temperature", "value": 1000, "unit": "µg/mL"}, {"measurement": "solubility at 48 h", "setting": "[3]; pH-adjusted aqueous solution, pH 3.1, aqueous buffer, Aqueous, pH 3.1 (HCl), room temperature", "value": 13.2, "unit": "µg/mL"}, {"measurement": "solubility at 48 h", "setting": "[3]; pH-adjusted aqueous solution, pH 4.1, aqueous buffer, Aqueous, pH 4.1 (HCl), room temperature", "value": 0.11, "unit": "µg/mL"}, {"measurement": "solubility at 48 h", "setting": "[3]; pH-adjusted aqueous solution, pH 5.5, aqueous buffer, Aqueous, pH 5.5 (HCl), room temperature", "value": 0.03, "unit": "µg/mL"}, {"measurement": "solubility at 48 h", "setting": "[3]; pH-adjusted aqueous solution, pH 6.2, water, Aqueous, pH 6.2 (unaltered), room temperature", "value": 0.03, "unit": "µg/mL"}, {"measurement": "solubility at 48 h", "setting": "[3]; pH-adjusted aqueous solution, pH 7.2, aqueous buffer, Aqueous, pH 7.2 (NaOH), room temperature", "value": 0.01, "unit": "µg/mL"}, {"measurement": "increase of solubility in SIBLM over FaSSIF", "setting": "[3]; room temperature", "value": "approximately 10 fold"}]}]}
